Assay results published in the OligoGym collection.
HELM strings list units from the 5' end as sugar, base in round brackets, then linkage (d deoxyribose, r ribose, m 2'-O-methyl, p phosphodiester). Strings are as the collection lists them, not checked against the first reports. ss, as = sense and antisense strand; [s4r] = 4'-thioribose; [fl2r] = 2'-fluoro

Details: siRNA
Further: test system not given here.

Substance	target mRNA knockdown [%]
RNA1{r(A)p.r(G)p.r(U)p.m(U)p.r(A)p.r(A)p.r(C)p.r(C)p.r(C)p.r(G)p.r(G)p.r(G)p.r(A)p.r(C)p.r(U)p.r(U)p.r(G)p.r(G)p.r(A)p.r(T)p.r(T)}|RNA2{r(U)p.r(C)p.m(C)p.r(A)p.r(A)p.r(G)p.r(U)p.r(C)p.r(C)p.r(C)p.r(G)p.r(G)p.r(G)p.r(U)p.r(U)p.r(A)p.r(A)p.r(C)p.r(U)p.r(T)p.r(T)}$$$RNA1{StrandType:ss}|RNA2{StrandType:as}$	91
RNA1{r(A)p.m(U)p.m(C)p.r(G)p.r(A)p.m(C)p.m(C)p.m(U)p.r(G)p.r(A)p.r(A)p.r(G)p.r(G)p.r(A)p.r(G)p.m(U)p.r(A)p.m(C)p.r(G)p.r(T)p.r(T)}|RNA2{m(C)p.r(G)p.m(U)p.r(A)p.m(C)p.m(U)p.m(C)p.m(C)p.m(U)p.m(U)p.m(C)p.r(A)p.r(G)p.r(G)p.m(U)p.m(C)p.r(G)p.r(A)p.m(U)p.r(T)p.r(T)}$$$RNA1{StrandType:ss}|RNA2{StrandType:as}$	19
RNA1{m(C)p.r(C)p.m(G)p.r(C)p.m(C)p.r(C)p.m(G)p.r(G)p.m(C)p.r(G)p.m(G)p.r(C)p.m(G)p.r(C)p.m(C)p.r(U)p.m(U)p.r(U)p.m(A)p.r(T)p.r(T)}|RNA2{r(U)p.r(A)p.r(A)p.r(A)p.r(G)p.r(G)p.r(C)p.r(G)p.r(C)p.r(C)p.r(G)p.r(C)p.r(C)p.r(G)p.r(G)p.r(G)p.r(C)p.r(G)p.r(G)p.r(T)p.r(T)}$$$RNA1{StrandType:ss}|RNA2{StrandType:as}$	49
RNA1{[fl2r](G)p.r(C)p.[fl2r](U)p.r(G)p.[fl2r](U)p.r(A)p.[fl2r](A)p.r(C)p.[fl2r](C)p.r(U)p.[fl2r](C)p.r(G)p.[fl2r](G)p.r(A)p.[fl2r](G)p.r(A)p.[fl2r](G)p.r(U)p.r(U)p.r(T)p.r(T)}|RNA2{r(A)p.r(A)p.r(C)p.r(U)p.r(C)p.r(U)p.r(C)p.r(C)p.r(G)p.r(A)p.r(G)p.r(G)p.r(U)p.r(U)p.r(A)p.r(C)p.r(A)p.r(G)p.r(C)p.r(T)p.r(T)}$$$RNA1{StrandType:ss}|RNA2{StrandType:as}$	51
RNA1{r(C)p.r(G)p.r(U)p.r(A)p.r(C)p.r(G)p.r(C)p.r(G)p.r(G)p.r(A)p.r(A)p.r(U)p.r(A)p.r(C)p.r(U)p.r(U)p.r(C)p.r(G)p.r(A)p.r(T)p.r(T)}|RNA2{r(U)p.[s4r](C)p.r(G)p.r(A)p.r(A)p.r(G)p.r(U)p.r(A)p.r(U)p.r(U)p.[s4r](C)p.[s4r](C)p.r(G)p.[s4r](C)p.r(G)p.r(U)p.r(A)p.[s4r](C)p.r(G)p.r(T)p.r(T)}$$$RNA1{StrandType:ss}|RNA2{StrandType:as}$	68.5
RNA1{r(A)p.r(U)p.m(C)p.r(A)p.m(C)p.r(A)p.r(A)p.r(A)p.r(C)p.r(C)p.r(C)p.r(C)p.m(U)p.r(A)p.r(G)p.r(A)p.r(G)p.r(G)p.r(G)p.r(T)p.r(T)}|RNA2{r(C)p.r(C)p.r(C)p.r(U)p.r(C)p.m(U)p.r(A)p.r(G)p.r(G)p.r(G)p.r(G)p.r(U)p.r(U)p.m(U)p.r(G)p.m(U)p.r(G)p.r(A)p.r(U)p.r(T)p.r(T)}$$$RNA1{StrandType:ss}|RNA2{StrandType:as}$	75
RNA1{r(C)p.r(G)p.r(U)p.r(A)p.r(C)p.r(G)p.r(C)p.r(G)p.r(G)p.r(A)p.r(A)p.r(U)p.r(A)p.r(C)p.r(U)p.r(U)p.r(C)p.r(G)p.r(A)p.r(T)p.r(T)}|RNA2{[s4r](U)p.[s4r](C)p.[s4r](G)p.[s4r](A)p.r(A)p.r(G)p.r(U)p.r(A)p.r(U)p.r(U)p.r(C)p.r(C)p.r(G)p.r(C)p.r(G)p.r(U)p.r(A)p.r(C)p.r(G)p.r(T)p.r(T)}$$$RNA1{StrandType:ss}|RNA2{StrandType:as}$	76.7
RNA1{r(A)p.r(A)p.r(C)p.r(C)p.[fl2r](C)p.r(A)p.r(C)p.r(C)p.r(A)p.r(C)p.r(A)p.r(G)p.r(C)p.[fl2r](U)p.r(A)p.r(G)p.r(A)p.r(A)p.r(C)p.r(U)p.r(U)}|RNA2{r(G)p.r(U)p.r(U)p.r(C)p.[fl2r](U)p.[fl2r](A)p.r(G)p.r(C)p.[fl2r](U)p.r(G)p.r(U)p.r(G)p.r(G)p.r(U)p.r(G)p.r(G)p.r(G)p.r(U)p.r(U)p.r(U)p.r(U)}$$$RNA1{StrandType:ss}|RNA2{StrandType:as}$	86
RNA1{r(G)p.r(A)p.r(C)p.r(C)p.r(A)p.r(C)p.r(G)p.r(A)p.r(A)p.r(G)p.r(A)p.r(G)p.r(U)p.[fl2r](U)p.r(A)p.r(A)p.r(C)p.r(C)p.r(C)p.r(T)p.r(T)}|RNA2{r(G)p.r(G)p.r(G)p.r(U)p.[fl2r](U)p.r(A)p.r(A)p.r(C)p.r(U)p.r(C)p.r(U)p.r(U)p.r(C)p.r(G)p.r(U)p.r(G)p.r(G)p.r(U)p.r(C)p.r(T)p.r(T)}$$$RNA1{StrandType:ss}|RNA2{StrandType:as}$	82
RNA1{r(U)p.r(C)p.[fl2r](C)p.r(A)p.r(A)p.r(G)p.r(C)p.r(U)p.r(U)p.r(C)p.r(C)p.r(U)p.r(C)p.r(G)p.r(U)p.[fl2r](U)p.[fl2r](G)p.r(G)p.r(U)p.r(T)p.r(T)}|RNA2{r(A)p.r(C)p.[fl2r](C)p.[fl2r](A)p.r(A)p.r(C)p.r(G)p.r(A)p.r(G)p.r(G)p.r(A)p.r(A)p.r(G)p.r(C)p.r(U)p.[fl2r](U)p.r(G)p.r(G)p.r(A)p.r(T)p.r(T)}$$$RNA1{StrandType:ss}|RNA2{StrandType:as}$	65
RNA1{m(U)p.r(G)p.m(A)p.r(A)p.m(C)p.r(G)p.m(U)p.r(C)p.m(A)p.r(C)p.m(C)p.r(G)p.m(A)p.r(G)p.m(G)p.r(A)p.m(G)p.r(A)p.m(A)p.r(T)p.r(T)}|RNA2{r(U)p.r(U)p.r(C)p.r(U)p.r(C)p.r(C)p.r(U)p.r(C)p.r(G)p.r(G)p.r(U)p.r(G)p.m(A)p.r(C)p.r(G)p.r(U)p.r(U)p.r(C)p.m(A)p.r(T)p.r(T)}$$$RNA1{StrandType:ss}|RNA2{StrandType:as}$	65
RNA1{r(A)p.r(A)p.r(G)p.[fl2r](U)p.r(A)p.r(G)p.r(U)p.r(C)p.r(C)p.r(C)p.[fl2r](C)p.r(C)p.r(U)p.[fl2r](U)p.r(G)p.r(A)p.r(A)p.r(G)p.r(A)p.r(T)p.r(T)}|RNA2{r(U)p.r(C)p.r(U)p.r(U)p.[fl2r](C)p.r(A)p.r(A)p.r(G)p.r(G)p.r(G)p.r(G)p.r(G)p.r(A)p.r(C)p.[fl2r](U)p.r(A)p.r(C)p.r(U)p.r(U)p.r(T)p.r(T)}$$$RNA1{StrandType:ss}|RNA2{StrandType:as}$	64
RNA1{m(G)p.r(C)p.m(A)p.r(A)p.m(G)p.r(U)p.m(G)p.r(G)p.m(C)p.r(A)p.m(A)p.r(G)p.m(A)p.r(G)p.m(G)p.r(A)p.m(U)p.r(U)p.r(A)p.r(T)p.r(T)}|RNA2{r(U)p.r(A)p.r(A)p.r(U)p.r(C)p.r(C)p.r(U)p.r(C)p.r(U)p.r(U)p.r(G)p.r(C)p.r(C)p.r(A)p.r(C)p.r(U)p.r(U)p.r(G)p.r(C)p.r(T)p.r(T)}$$$RNA1{StrandType:ss}|RNA2{StrandType:as}$	55
RNA1{m(U)p.r(U)p.m(A)p.r(A)p.m(G)p.r(G)p.m(A)p.r(G)p.m(A)p.r(A)p.m(G)p.r(C)p.m(U)p.r(G)p.m(A)p.r(C)p.m(G)p.r(G)p.m(C)p.r(T)p.r(T)}|RNA2{m(G)p.r(C)p.r(C)p.m(G)p.r(U)p.r(C)p.r(A)p.m(G)p.r(C)p.r(U)p.r(U)p.r(C)p.r(U)p.r(C)p.r(C)p.r(U)p.r(U)p.r(A)p.r(A)p.r(T)p.r(T)}$$$RNA1{StrandType:ss}|RNA2{StrandType:as}$	45
